Test results: patent US8937066B2, “Amino derivatives of dihydro-1,3,5-triazine used in the treatment of ischemia and/or reperfusion related diseases” (Poxel, priority 2009, dated 2015)

Assays:
[1] = tested on: infarct size / area at risk; test: Model of myocardial infarction in the rabbit (30 min coronary occlusion, 4 h reperfusion); type: in vivo; conditions: for AN (area of necrosis) / AN/AR / AN/LV: group mean (extent of values)
Protocol: Male New Zealand albino rabbits weighing between 2.2 and 2.5 kg were anesthetized by intramuscular injection of xylazine (5 mg/kg) and ketamine (50 mg/kg). An intravenous infusion of a mixture of xylazine (20 to 50 μg/kg/min) and ketamine (40 to 100 μg/kg/min) was maintained throughout the test.
After a median cervical incision, a tracheotomy was performed and the animals were ventilated with ambient air. A cannula was inserted in the right internal jugular vein for administration of the medicinal products and fluids and in the left carotid artery for measurement of blood pressure. After an intravenous bolus administration of fentanyl ([…]), a left thoracotomy was performed at the level of the fourth left intercostal space. The pericardium was opened and the heart was exposed. A 3.0 suture thread attached to a small curved needle was passed around a marginal branch of the left circumflex coronary artery. The two ends of the thread were passed through a small vinyl tube to form a collar that could be tightened for occluding and released for reperfusing the artery. Body temperature was monitored via an intraperitoneal thermometer and kept constant by means of a heating block. The heart rate and arterial pressure were monitored continuously on a Gould recorder (Gould Inc., Cleveland, Ohio).
After surgery, a period of stabilization of 15 minutes was observed.
The rabbits are randomly distributed into 4 groups. All the animals undergo a prolonged occlusion of 30 minutes of the coronary artery, followed by 4 hours of reperfusion. Five minutes before reperfusion, the rabbits receive an intravenous injection of either: • a vehicle (volume corresponding to dose 1 or 2 of E 008) (Control, C), • E 008 at dose 1, • E 008 at dose 2, • of ciclosporin A (CsA) at 10 mg/kg.
The sample size is 8 to 10 animals per group. In these groups, the hearts were collected at the end of the period of 4 hours of reperfusion for subsequent evaluation of infarct size.
After 4 hours of reperfusion, the coronary artery was briefly reoccluded and 0.5 mg/kg of Uniperse blue pigment (Ciba-Geigy®, Hawthorne N.Y.) was injected intravenously for delimiting the area at risk in viva With this technique, the previously nonischemic myocardium appears blue, whereas the previously ischemic myocardium (area at risk) remains unstained.
The anesthetized rabbits were then euthanized by intravenous injection of pentobarbital. The heart was excised and cut into transverse slices with thickness of 5 to 6 mm, parallel to the atrioventricular sulcus. After removing the tissue of the right ventricle, each slice was weighed. The basal surface of each slice was photographed for later measurement of the area at risk. Each slice was then incubated for 15 minutes in a 1% solution of triphenyltetrazolium chloride at 37° C. for differentiating the myocardial zones that were infarcted (pale) and viable (brick red). The slices were then photographed again. Magnified projections of these slices were traced for determining the boundaries of the area at risk (AR) and of the area of necrosis (AN). The extent of these areas at risk and of necrosis was quantified by planimetry by computer and corrected relative to the weight of the tissue slices. The total weights of the area at risk and of the area of necrosis were then calculated and expressed in grams and as a percentage of total left ventricle (LV) and of the weight of the area at risk, respectively. […] Evaluation of infarct size was performed blind.
The results are presented in the following table in the form of value averaged for all the animals of a group, the figure in parentheses representing the extent of the values measured for the different animals.

[2] = tested on: complex I of the respiratory chain of endothelial cells; test: ROS production by complex I of the respiratory chain; type: cell-based; conditions: by inhibiting reverse electron flow
[3] = tested on: human immortalized microvascular dermal endothelial cells HMEC-1; test: Mitochondrial membrane potential (TMRM, confocal microscopy) after ischemia/reperfusion; type: cell-based; conditions: 10 mM for 30 min; for mitochondrial membrane potential after reperfusion: then 60 min ischemia and 90/120 min reperfusion
Protocol: The objective of this study is to evaluate the protective effect of the compound E 008 on vascular injury due to ischemia/reperfusion, by measuring the effect of E 008 on loss of mitochondrial membrane potential induced by ischemia/reperfusion.
The line of human immortalized microvascular dermal endothelial cells HMEC-1 was used.
The cells were treated according to the following scheme: • control group: no treatment, followed by ischemia of 60 min and reperfusion of 120 min. • metformin group: incubation with metformin at a concentration of 10 mM for 30 min, followed by ischemia of 60 min and reperfusion of 120 min. • E 008 group: incubation with the compound E 008 at a concentration of 10 mM for 30 min followed by ischemia of 60 min and reperfusion of 120 min. Measurement of Mitochondrial Membrane Potential
In order to measure the mitochondrial potential, the cells were incubated, throughout the above treatment, with the fluorescent probe tetramethylrhodamine methyl ester (TMRM) at a concentration of 30 nM.
They were analyzed in confocal microscopy before treatment, after 60 min of ischemia, after 90 min of reperfusion and after 120 min of reperfusion (FIG. 1).

[4] = E 008 1 mg/kg i.v. 5 min before reperfusion
[5] = E 008 5 mg/kg i.v. 5 min before reperfusion

| SMILES | AN (area of necrosis) [1, 4] | AN/AR [1, 4] | AN/LV [1, 4] | protection in the model of myocardial infarction ([1]; E 008 5 mg/kg i.v.) | AN (area of necrosis) [1, 5] | AN/AR [1, 5] | AN/LV [1, 5] | infarct size relative to ciclosporin A ([1]; E 008 5 mg/kg i.v. vs CsA 10 mg/kg) | infarct size relative to the control ([1]; i.v. 5 min before reperfusion, dose not given) | production of ROS by complex I of the respiratory chain [2] | mitochondrial membrane potential after reperfusion [3] | protective effect against loss of membrane potential compared with metformin ([3]; then 60 min ischemia and 120 min reperfusion) |
| --- | --- | --- | --- | --- | --- | --- | --- | --- | --- | --- | --- | --- |
| CC1N=C(N)NC(N(C)C)=N1 (stereo not shown) [E 008] | 0.31 (±0.15) g | 33.9 (±12.2) % | 11.8 (±5) % | significant protection | 0.21 (±0.09) g | 29.4 (±10.3) % | 8.3 (±3.7) % | reduction in infarct size relative to ciclosporin A | significant reduction in infarct size | reduce the production of ROS | protected from the damage due to reperfusion | better protective effect |
| CN(C)C(=N)N=C(N)N [metformin, reference compound] | – | – | – | – | – | – | – | – | – | – | protected from the damage due to reperfusion | – |
